Results on six compounds are retold here after PubChem BioAssay AID1259407 (Chemical Carcinogenesis Research Information System (CCRIS), 2018).

Activity calls are given as the source filed them. No rule for the calls is given here.

The data set concerns CCRIS mutagenicity, Ames/micronucleus/aberration tests. As to the kind of experiment: CCRIS mutagenicity studies.
Where [1] appears, read: Test System: AMES SALMONELLA TYPHIMURIUM, Strain/Indicator: TA1537, Metabolic Activation: NONE, Method: STANDARD PLATE.
Where [2] appears, read: Test System: AMES SALMONELLA TYPHIMURIUM, Strain/Indicator: TA98, Metabolic Activation: NONE, Method: STANDARD PLATE.
Where [3] appears, read: Test System: AMES SALMONELLA TYPHIMURIUM, Strain/Indicator: TA100, Metabolic Activation: NONE, Method: STANDARD PLATE.

For `Cc1c(Br)c(Br)c(Br)c(Br)c1Br`, the mutagenic call is “inactive; negative” (Test System: AMES SALMONELLA TYPHIMURIUM, Strain/Indicator: TA98, Metabolic Activation: HAMSTER, LIVER, S-9, AROCLOR 1254 (10%), Method: PREINCUBATION); “inactive; negative” (Test System: AMES SALMONELLA TYPHIMURIUM, Strain/Indicator: TA98, Metabolic Activation: NONE, Method: PREINCUBATION); “inactive; negative” (Test System: AMES SALMONELLA TYPHIMURIUM, Strain/Indicator: TA98, Metabolic Activation: RAT, LIVER, S-9, AROCLOR 1254 (10%), Method: PREINCUBATION); “inactive; negative” (Test System: AMES SALMONELLA TYPHIMURIUM, Strain/Indicator: TA100, Metabolic Activation: HAMSTER, LIVER, S-9, AROCLOR 1254 (10%), Method: PREINCUBATION); “inactive; negative” (Test System: AMES SALMONELLA TYPHIMURIUM, Strain/Indicator: TA100, Metabolic Activation: NONE, Method: PREINCUBATION); “inactive; negative” (Test System: AMES SALMONELLA TYPHIMURIUM, Strain/Indicator: TA100, Metabolic Activation: RAT, LIVER, S-9, AROCLOR 1254 (10%), Method: PREINCUBATION). The mutagenic call (Test System: AMES SALMONELLA TYPHIMURIUM, Strain/Indicator: TA1535, Metabolic Activation: HAMSTER, LIVER, S-9, AROCLOR 1254 (10%), Method: PREINCUBATION) was “inactive; negative”; the mutagenic call (Test System: AMES SALMONELLA TYPHIMURIUM, Strain/Indicator: TA1535, Metabolic Activation: NONE, Method: PREINCUBATION) is “inactive; negative”; the mutagenic call (Test System: AMES SALMONELLA TYPHIMURIUM, Strain/Indicator: TA1535, Metabolic Activation: RAT, LIVER, S-9, AROCLOR 1254 (10%), Method: PREINCUBATION) is “inactive; negative”; the mutagenic call (Test System: AMES SALMONELLA TYPHIMURIUM, Strain/Indicator: TA1537, Metabolic Activation: HAMSTER, LIVER, S-9, AROCLOR 1254 (10%), Method: PREINCUBATION) is “inactive; negative”; the mutagenic call (Test System: AMES SALMONELLA TYPHIMURIUM, Strain/Indicator: TA1537, Metabolic Activation: NONE, Method: PREINCUBATION) was “inactive; negative”; the mutagenic call (Test System: AMES SALMONELLA TYPHIMURIUM, Strain/Indicator: TA1537, Metabolic Activation: RAT, LIVER, S-9, AROCLOR 1254 (10%), Method: PREINCUBATION) is “inactive; negative”.
Turning to `COc1cc(O)c2c(c1)C(=O)c1c(O)c(C)cc(O)c1C2=O`, the mutagenic call was “inactive; negative” under setting [1] and “active; positive” (Test System: AMES SALMONELLA TYPHIMURIUM, Strain/Indicator: TA1537, Metabolic Activation: S-9, Method: STANDARD PLATE).
For `Clc1ccccn1`, the mutagenic call (Test System: AMES SALMONELLA TYPHIMURIUM, Strain/Indicator: TA97, Metabolic Activation: NONE, Method: STANDARD PLATE) was “inactive; negative”; the mutagenic call (Test System: AMES SALMONELLA TYPHIMURIUM, Strain/Indicator: TA97, Metabolic Activation: RAT, LIVER, S-9, AROCLOR 1254, Method: STANDARD PLATE) is “active; positive”; the mutagenic call under setting [2] is “inactive; negative”; the mutagenic call (Test System: AMES SALMONELLA TYPHIMURIUM, Strain/Indicator: TA98, Metabolic Activation: RAT, LIVER, S-9, AROCLOR 1254, Method: STANDARD PLATE) is “active; positive”; the mutagenic call under setting [3] is “inactive; negative”; the mutagenic call (Test System: AMES SALMONELLA TYPHIMURIUM, Strain/Indicator: TA100, Metabolic Activation: RAT, LIVER, S-9, AROCLOR 1254, Method: STANDARD PLATE) was “active; positive”. The mutagenic call runs as follows: (Test System: AMES SALMONELLA TYPHIMURIUM, Strain/Indicator: TA102, Metabolic Activation: NONE, Method: STANDARD PLATE) “inactive; negative”; (Test System: AMES SALMONELLA TYPHIMURIUM, Strain/Indicator: TA102, Metabolic Activation: RAT, LIVER, S-9, AROCLOR 1254, Method: STANDARD PLATE) “active; positive”; (Test System: MOUSE LYMPHOMA, Strain/Indicator: L5178Y (TK+/TK-), Metabolic Activation: NONE) “active; positive”; (Test System: MOUSE LYMPHOMA, Strain/Indicator: L5178Y (TK+/TK-), Metabolic Activation: RAT, LIVER, S-9, AROCLOR 1254) “active; positive”.
On to `Oc1cc(Cl)ccc1Oc1ccc(Cl)cc1Cl`, for which the mutagenic call is “inactive; negative” (End Point: In vitro chromosomal aberrations, Test System: Chinese hamster ovary strain K1-BH4 cells, Metabolic Activation: None); “inactive; negative” (End Point: In vitro chromosomal aberrations, Test System: Chinese hamster ovary strain K1-BH4 cells, Metabolic Activation: S-9); “inactive; negative” (End Point: In vivo chromosomal aberrations, Test System: Bone marrow, Species: Rat, Strain/Sex: Wistar/Female, Route: Gavage); “inactive; negative” (End Point: In vivo chromosomal aberrations, Test System: Bone marrow, Species: Rat, Strain/Sex: Wistar/Male, Route: Gavage); “inactive; negative” (End Point: In vivo micronucleus, Test System: Bone marrow, Species: Mouse, Strain/Sex: CD-1 SPF Swiss albino, Route: Gavage); “inactive; negative” (Test System: Ames Salmonella typhimurium, Strain/Indicator: TA98, Metabolic Activation: None, Method: Preincubation). Further, the mutagenic call (Test System: Ames Salmonella typhimurium, Strain/Indicator: TA98, Metabolic Activation: None, Method: Standard Plate) is “inactive; negative”; the mutagenic call (Test System: Ames Salmonella typhimurium, Strain/Indicator: TA98, Metabolic Activation: S-9, Method: Preincubation) is “inactive; negative”; the mutagenic call (Test System: Ames Salmonella typhimurium, Strain/Indicator: TA98, Metabolic Activation: S-9, Method: Standard Plate) is “inactive; negative”; the mutagenic call (Test System: Ames Salmonella typhimurium, Strain/Indicator: TA100, Metabolic Activation: None, Method: Preincubation) is “inactive; negative”; the mutagenic call (Test System: Ames Salmonella typhimurium, Strain/Indicator: TA100, Metabolic Activation: None, Method: Standard Plate) was “inactive; negative”; the mutagenic call (Test System: Ames Salmonella typhimurium, Strain/Indicator: TA100, Metabolic Activation: S-9, Method: Preincubation) was “inactive; negative”. In addition, the mutagenic call was “inactive; negative” (Test System: Ames Salmonella typhimurium, Strain/Indicator: TA100, Metabolic Activation: S-9, Method: Standard Plate); “inactive; negative” (Test System: Ames Salmonella typhimurium, Strain/Indicator: TA 1535, Metabolic Activation: None, Method: Preincubation); “inactive; negative” (Test System: Ames Salmonella typhimurium, Strain/Indicator: TA 1535, Metabolic Activation: None, Method: Standard Plate); “inactive; negative” (Test System: Ames Salmonella typhimurium, Strain/Indicator: TA 1535, Metabolic Activation: S-9, Method: Preincubation); “inactive; negative” (Test System: Ames Salmonella typhimurium, Strain/Indicator: TA 1535, Metabolic Activation: S-9, Method: Standard Plate); “inactive; negative” (Test System: Ames Salmonella typhimurium, Strain/Indicator: TA1537, Metabolic Activation: None, Method: Preincubation). Moreover, the mutagenic call is “inactive; negative” (Test System: Ames Salmonella typhimurium, Strain/Indicator: TA1537, Metabolic Activation: None, Method: Standard Plate); “inactive; negative” (Test System: Ames Salmonella typhimurium, Strain/Indicator: TA1537, Metabolic Activation: S-9, Method: Preincubation); “inactive; negative” (Test System: Ames Salmonella typhimurium, Strain/Indicator: TA1537, Metabolic Activation: S-9, Method: Standard Plate); “inactive; negative” (Test System: Ames Salmonella typhimurium, Strain/Indicator: TA1538, Metabolic Activation: None, Method: Standard Plate); “inactive; negative” (Test System: Ames Salmonella typhimurium, Strain/Indicator: TA1538, Metabolic Activation: S-9, Method: Standard Plate).
As to `CC(C)NCC(=O)NC(=O)C=[N+]=[N-]`, where the note is “Test System: UDS RODENT CELLS, Strain/Indicator: THY INCORP (NON-S-PHASE), Metabolic Activation: NONE, Method: AUTORADIOGRAPHY”, the mutagenic call was “active; positive”.
`Nc1ccc2[nH]c3ccccc3c2c1[N+](=O)[O-]`: the mutagenic call by setting is: under setting [2], “active; positive”; (Test System: AMES SALMONELLA TYPHIMURIUM, Strain/Indicator: TA98, Metabolic Activation: RAT, LIVER, S-9, PHENOBARBITAL, Method: STANDARD PLATE) “active; positive”; under setting [3], “active; positive”; (Test System: AMES SALMONELLA TYPHIMURIUM, Strain/Indicator: TA100, Metabolic Activation: RAT, LIVER, S-9, PHENOBARBITAL, Method: STANDARD PLATE) “inactive; negative”; under setting [1], “active; positive”; (Test System: AMES SALMONELLA TYPHIMURIUM, Strain/Indicator: TA1537, Metabolic Activation: RAT, LIVER, S-9, PHENOBARBITAL, Method: STANDARD PLATE) “active; positive”. For the same compound, the mutagenic call (Test System: AMES SALMONELLA TYPHIMURIUM, Strain/Indicator: TA1538, Metabolic Activation: NONE, Method: STANDARD PLATE) is “active; positive”; the mutagenic call (Test System: AMES SALMONELLA TYPHIMURIUM, Strain/Indicator: TA1538, Metabolic Activation: RAT, LIVER, S-9, PHENOBARBITAL, Method: STANDARD PLATE) was “active; positive”; the mutagenic call (Test System: AMES SALMONELLA TYPHIMURIUM, Strain/Indicator: TA1977, Metabolic Activation: NONE, Method: STANDARD PLATE) is “active; positive”; the mutagenic call (Test System: AMES SALMONELLA TYPHIMURIUM, Strain/Indicator: TA1977, Metabolic Activation: RAT, LIVER, S-9, PHENOBARBITAL, Method: STANDARD PLATE) is “active; positive”.
